Measurements from patent US5340807A, “Tricyclic compounds and intermediates thereof” (priority 1991, dated 1994).

system: acyl coenzyme A: cholesterol acyltransferase (ACAT); experiment: Test for ACAT inhibitory activity (microsome fraction prepared from rabbit liver); type: biochemical; conditions: 10^-6 M, 37° C., 10 minutes
Method: Test for ACAT inhibitory activity The test for ACAT inhibitory activity was performed by a modified method of the method of Brecher et al. Biochim. Biophys. […] The radioactivity of the cholesterol ester spot was determined by a liquid scintillation counter. The radio-activity for each test compound was calculated by the difference between the radioactivity with the microsome fraction and the radioactivity without the microsome fraction. The radioactivity of control was determined in a similar manner without any test compound.

| SMILES | Inhibiting rate(%) of ACAT [%] |
| --- | --- |
| CC(C)c1cccc(C(C)C)c1NC(=O)C1c2ccccc2COc2ccc(Br)cc21 (single isomer, unassigned) [Compound 60, (-) -2-Bromo-6,11-dihydro-N-(2,6-diisopropylphenyl) dibenz[b,e]oxepin-11-carboxamide] | 99 |
| CSc1cc(C(C)C)c(NC(=O)C2c3ccccc3COc3ccc(Br)cc32)c(C(C)C)c1 (stereo not drawn) [Compound 44, 2-Bromo-6,11-dihydro-N-(2,6-diisopropyl-4-methylthiophenyl)dibenz[b,e]oxepin-11-carboxamide] | 95 |
| Cc1ccc(Cl)c2c1C(C(=O)Nc1c(C(C)C)cccc1C(C)C)c1ccccc1CO2 (stereo not drawn) [Compound 64, 4-Chloro-6,11-dihydro-N-(2,6-diisopropylphenyl) -1-methyldibenz[b,e]oxepin-11-carboxamide] | 100 |
| CCc1cccc(CC)c1NC(=O)C1c2ccccc2COc2c(C)ccc(C)c21 (stereo not drawn) [Compound 50, 6,11-Dihydro-N-(2,6-diethylphenyl) -1,4-dimethyldibenz[b,e]-oxepin-11-carboxamide] | 93 |
| O=C(Nc1c(Cl)cccc1Cl)C1c2ccccc2COc2ccc(Br)cc21 (stereo not drawn) [Compound 39, 2-Bromo-N-(2,6-dichlorophenyl)-6,11-dihydrodibenz[b,e]oxepin-11-carboxamide] | 91 |
| COC(=O)c1cc(C)cc2c1OCc1ccccc1C2C(=O)Nc1c(C(C)C)cccc1C(C)C (stereo not drawn) [Compound 51, Methyl 6,11-dihydro-11-(2,6-diisopropylphenyl)aminocarbonyl-2-methyldibenz[b,e]oxepin-4-carboxylate] | 99 |
| CCc1cccc(CC)c1NC(=O)C1c2ccccc2COc2cc(C)c(Br)c(C)c21 (stereo not drawn) [Compound 57, 2-Bromo-N-(2,6-diethylphenyl)-6,11-dihydro-1,3-dimethyldibenz[b,e]oxepin-11-carboxamide] | 98 |
| Cc1ccc2c(c1)C(C(=O)Nc1c(C)cccc1C)c1ccccc1CO2 (stereo not drawn) [Compound 2, 6,11-Dihydro-2-methyl-N-(2,6-dimethylphenyl) dibenz[b,e]-oxepin-11-carboxamide] | 66 |
| Cc1ccc(C)c2c1OCc1ccccc1C2C(=O)Nc1c(C(C)C)cccc1C(C)C (stereo not drawn) [Compound 49, 6,11-Dihydro-N-(2,6-diisopropylphenyl)-1,4-dimethyldibenz[b,e]oxepin-11-carboxamide] | 97 |
| Cc1cc2c(c(C)c1Br)C(C(=O)Nc1c(C(C)C)cccc1C(C)C)c1ccccc1CO2 (stereo not drawn) [Compound 56, 2-Bromo-6,11-dihydro-N-(2,6-diisopropylphenyl)-1,3-dimethyldibenz[b,e]oxepin-11-carboxamide] | 99 |
| CC(C)c1cccc(C(C)C)c1NC(=O)C1c2cc(Br)ccc2OCc2ncccc21 (stereo not drawn) [Compound 42] | 91 |
| CC(C)c1cccc(C(C)C)c1NC(=O)C1c2ccccc2CCc2cc(Br)ccc21 (stereo not drawn) [Compound 69, 2-Bromo-10,11-dihydro-N-(2,6-diisopropylphenyl) -5H-dibenz[a,d]cyclohepten-5-carboxamide] | 98 |
| CSc1cc(C(C)C)c(NC(=O)C2c3ccccc3COc3ccc(C)cc32)c(C(C)C)c1 (stereo not drawn) [Compound 30, 6,11-Dihydro-N-(2,6-diisopropyl-4-methylthiophenyl)-2-methyldibenz[b,e]oxepin-11-carboxamide] | 78 |
| Cc1cc2c(cc1C)C(C(=O)Nc1c(C(C)C)cccc1C(C)C)c1ccccc1CO2 (stereo not drawn) [Compound 48, 6,11-Dihydro-N-(2,6-diisopropylphenyl)-2,3-dimethyldibenz[b,e]oxepin-11-carboxamide] | 96 |
| CC(C)c1cccc(C(C)C)c1NC(=O)C1c2ccccc2COc2c1cc(Br)cc2N(C)C.Cl (stereo not drawn) [Compound 55, 2-Bromo-6,11-dihydro-N-(2,6-diisopropylphenyl)-4-dimethylaminodibenz[b,e]oxepin-11-carboxamide hydrochloride] | 100 |
